Measured values as given in patent US20130198900A1, “"THIAMINE PYROPHOSPHATE (TPP) RIBOSWITCH MUTANTS PRODUCING VITAMIN B1 ENRICHED FOOD AND FEED CROPS"” (BEN-GURION UNIVERSITY OF THE NEGEV, priority 2010, published 2013).

Columns and labels:
[1] = tested on: AtTHIC promoter and AtTHIC 3' UTR (TPP riboswitch); assay: Dual reporter assay (RFP under AtTHIC promoter, YFP fused to AtTHIC 3' UTR) with exogenous TPP; format: in vivo, Arabidopsis
Procedure: Arabidopsis thaliana plants (ecotype Columbia, Col-0) were grown on soil in climate rooms (22° C.; 70% humidity; 16/8 hr light/dark for long day conditions and 10/14 hr light/dark for short day conditions). The Atthi1 and Atthic mutants were obtained from the European Arabidopsis Stock Center (NASC; http://arabidopsis.info/; stock ID: N3375; salk—011114 respectively). For experiments involving TPP addition, plants were grown for 14 days in petri dishes on MS media (basal salt mixture; Duchefa, Haarlem, The Netherlands) with 1% sucrose and 1% agar, to which TPP (Sigma, Cat. no. C8754, water soluble) was added up to the indicated concentration.
In order to determine whether the diurnal changes of AtTHIC expression are caused by the light or by the circadian clock, Arabidopsis plants were subjected to a circadian assay (see material and methods above). […] In the growth conditions used herein, the transcripts reached their highest expression level at the beginning of the dark period and their lowest expression level shortly after the beginning of the light period. […] To separate between these two modes of gene control, a dual reporter assay was developed, allowing observing the in vivo activity of both elements. Expression of one reporter gene, YELLOW FLUORESCENT PROTEIN(YFP) was under the control of a constitutive promoter (CaMV-35S) and fused to the AtTHIC 3′ UTR. A second reporter gene, RED FLUORESCENT PROTEIN(RFP) was placed under the regulation of the native AtTHIC promoter and fused to the NOS terminator (FIG. 4). These two reporters were introduced into the Arabidopsis wild type (wt) and thi1 mutant (deficient in thiamine biosynthesis), and their expression was monitored under various conditions. Wild type plants harboring this double reporter genes system were subjected to a circadian assay.
The expression level of the above-described reporter genes (YFP and RFP) in fully grown plants was also determined. […]

AtTHIC gene = assay: AtTHIC transcript levels (qPCR) under bacimethrin treatment in wt, upf1 and upf3 plants; format: in vivo, Arabidopsis; settings: 1 mM bacimethrin
Procedure: Quantitative Real Time PCR (qPCR) gene expression analysis was performed with three biological replicates using gene/variant-specific qPCR oligonucleotide-pairs, designed with Primer Express software (Applied Biosystems). AtUBIQUITIN C (At5g25760) was used as endogenous control for all analyses. Fixed amount of DNAse-treated total RNA was reverse transcribed using AMV Reverse Transcriptase (EurX Ltd., Poland). RT-PCR reactions were tracked on an ABI 7300 instrument (Applied Biosystems) using the PlatinumR SYBR SuperMix (Invitrogen). Each sample was PCR-amplified from the same amount of cDNA template in triplicate reactions. Following an initial step in the thermal cycler for 10 min at 95° C., PCR amplification proceeded for 40 cycles of 15 s at 95° C. and 60 s at 60° C., and completed by melting curve analysis to confirm specificity of PCR products. The baseline and threshold values were adjusted according to manufacturer's instructions.
Given the importance of the AtTHIC gene for thiamine biosynthesis, its mode of regulation, particularly the nature of the high turnover of the intron-spliced variant compared to the intron-retained variant was further examined. Since the spliced variant contains two introns in its 3′ UTR, its instability could be due to the activity of the non-sense mediated decay (NMD) pathway (Kertesz S et al., 2006. Nucleic Acids Res 34, 6147-6157). Thus, the level of this transcript was measured in the background of upf1 and upf3 mutants of Arabidopsis affected in the NMD pathway (Arciga-Reyes L et al., 2006. Plant J 47, 480-489). Transcript level was examined in both normal and low TPP concentrations (FIG. 9). Lowering the plant endogenous TPP levels in these experiments was obtained using 1 mM bacimethrin, an anti-metabolite that inhibits thiamine production (Reddick et al., 2001; ibid). In wt plants as well as in the upf1 and upf3 mutants, bacimethrin treatment (preventing thiamine accumulation) caused the upregulation of the total AtTHIC transcript and of its intron-retention variant (FIGS. 9A and 9B, respectively). […] Thus, the accumulation of this transcript in the upf mutants can be explained by an increase in its stability since the NMD trans-factors are missing. It should also be noticed, that due to the accumulation of the intron-spliced variant under bacimethrin treatment, the total AtTHIC transcripts are more abundant in the upf mutants.

thiamine biosynthesis = assay: Bacimethrin treatment of wild type plants, thiamine and TPP levels by HPLC; format: in vivo, Arabidopsis; settings: 1 mM in growth medium, wild type plants (FIG. 26)
Procedure: Bacimethrin is a naturally occurring thiamine anti-metabolite. It is converted to 2′-methoxy-thiamine pyrophosphate by the thiamine biosynthetic enzymes at a rate that is 6 times faster than the rate of conversion of the natural substrate HMP to thiamine pyrophosphate (Reddick J J et al., 2001. Bioorg Med Chem Lett 11, 2245-2248). Since bacimethrin is a thiamine biosynthesis inhibitor in bacteria, its potency in plants was examined.
Samples (100 mg) were harvested from three weeks old plants grown in short day conditions at the end of the light period, and immediately frozen in liquid nitrogen. The plant samples were then grinded followed by the addition of 400 μl of 0.1M HCl, and sonicated in a water bath for 30 min. The resulting extracts were centrifuged at 14,000 rpm (in a regular bench centrifuge) for 10 min. […] Thiochrome derivatives of thiamine, TMP, and TPP were detected by fluorescence at excitation 370 nm and emission 430 nm. Different concentrations of thiamine, thiamine monophosphate (TMP) and thiamine pyrophosphate (TPP) standards were analyzed using the same extraction procedure and chromatographic conditions. […] For quantification of the samples, the peak areas of the samples were compared to the corresponding standard curve.

[2] = tested on: thiamine biosynthetic enzymes; settings: Reddick et al., 2001; cited from earlier work

SMILES	RFP expression directed by AtTHIC promoter ([1]; Atthi1 mutant plants)	YFP expression regulated by AtTHIC 3' UTR ([1]; Atthi1 mutant plants)	reporter gene expression (RFP and YFP) ([1]; wt plants with double reporter gene system, increasing TPP concentrations)	AtTHIC intron-spliced variant transcript (AtTHIC gene; upf1 and upf3 mutants (FIG. 9C))	AtTHIC intron-spliced variant transcript (AtTHIC gene; wt plants (FIG. 9C))	total AtTHIC transcript (AtTHIC gene; wt plants and upf1, upf3 mutants (FIG. 9A))	AtTHIC intron-retention variant transcript (AtTHIC gene; wt plants and upf1, upf3 mutants (FIG. 9B))	TPP levels (thiamine biosynthesis)	thiamine levels (thiamine biosynthesis)	rate of conversion to 2'-methoxy-thiamine pyrophosphate relative to conversion of natural substrate HMP to thiamine pyrophosphate [2]
Cc1ncc(C[n+]2csc(CCO[P@](=O)(O)OP(=O)(O)O)c2C)c(N)n1 [TPP, thiamine pyrophosphate]	did not respond	regulated YFP expression in a TPP dependent manner	Only slight changes	–	–	–	–	–	–	–
COc1ncc(CO)c(N)n1 [bacimethrin]	–	–	–	did not decrease	down-regulation	upregulation	upregulation	reduced	increased	6 times faster
